According to patent US20240050449A1, “Use of Acetyltanshinone IIA in Preparation of Medicament for Treating Lung Cancer and Medicament for Treating Lung Cancer” (UNIVERSITY OF MACAU, priority 2022, published 2024):

Key:
H358 cells [1] = test: Colony formation (cloning experiment), H358 cells; format: cell-based; conditions: 10 days
Experimental: (§1) Cells were seeded at a density of 1×10^3 per well in 6-well plates and cultured for 24 h. The cells were treated with medicament or DMSO for 10 days, after which the cells were washed once with 1×PBS, fixed with 4% paraformaldehyde for 20 min, and stained with 0.1% crystal violet for 15 min. The stained cells in each well were imaged and the number of colonies in each well was quantified using ImageJ software.

[2] = tested on: all four drug-resistant cell lines (A549, H358, H1975, H1650); test: Colony formation, all four drug-resistant cell lines; format: cell-based; conditions: 1 μM, 10 days
Experimental: as §1

A549 and H1650 cells = test: Cell cycle analysis (PI staining, flow cytometer); format: cell-based; conditions: 1 or 2 μM, 48 h
Experimental: Cell cycle analysis was performed using standard flow cytometer protocols. Briefly, after ATA treatment, cells were harvested, washed with 1×PBS, and then fixed with 70% pre-chilled ethanol at 4° C. for 30 min. Fixed cells were washed twice with 1×PBS, resuspended in 0.5 mL of 1×PBS containing 50 μg/mL propidium iodide (PI) and 100 μg/mL RNase A (ribonuclease A) for 30 min at 37° C. in the dark. The cell cycle was then analyzed on a BD Accuri C6 flow cytometer (BD Biosciences, CA). Data from the flow cytometer were analyzed using FlowJo software (Tree Star).

[3] = tested on: protein levels in A549-derived xenograft tumor tissue; test: Western blot of A549-derived xenograft tumor tissue; format: in vivo, nude mice; conditions: after ATA treatment, 25 mg/kg
Experimental: Cells were washed once with PBS and frozen in RIPA lysis buffer containing protease and phosphatase inhibitors (Sigma-Aldrich) for 30 min. After sonication and centrifugation, the total protein concentration was determined by protein assay using Bio-Rad concentrated dye reagent (Bio-Rad). Equal amounts of protein (25-50 mg) from each sample were separated by SDS-PAGE and electrotransferred to nitrocellulose membranes (GE Healthcare). Detection was performed on the membrane with a 1:1000 dilution of specific primary antibody followed by incubation with a 1:2000 dilution of the HRP conjugated secondary antibody. Finally, immunoreactivity is detected with a chemiluminescent substrate (Clarity Western ECL substrate; Bio-Rad). EGFR (#4267S), MET (#8198S), p-Akt (#9271L), akt (#9272S), p-mTOR (#5536S), mTOR (#2983S), p-p70S6K (#9234S), p70S6K (#2708S), p-S6RP (#4857S), S6RP (#2217S), p-4E-BP1 (#9455S) antibodies. 4E-BP1 (#9644S), p53 (#2527S), p21 waf1/Cip1 (#2947S), survivin (#2808S), cyclin B1 (#12231S), cyclin D3 (#2936S) and GAPDH (#2118S) were purchased from Cell Signaling Technology. Aurora A (#ab13824) and PLK1 (#ab189139) antibodies were from Abcam.
EGFR, MET, p-p70S6K, p70S6K, p-S6RP, S6RP, p21, AURKA, PLK1, and survivin protein levels were detected by Western blot analysis. Immunoblot samples were from two independent tumors per group.

EGFR = test: Western blot, EGFR protein levels in drug-resistant NSCLC cells; format: cell-based
Experimental: (§2) Cells were washed once with PBS and frozen in RIPA lysis buffer containing protease and phosphatase inhibitors (Sigma-Aldrich) for 30 min. After sonication and centrifugation, the total protein concentration was determined by protein assay using Bio-Rad concentrated dye reagent (Bio-Rad). Equal amounts of protein ([…]) from each sample were separated by SDS-PAGE and electrotransferred to nitrocellulose membranes (GE Healthcare). Detection was performed on the membrane with a 1:1000 dilution of specific primary antibody followed by incubation with a 1:2000 dilution of the HRP conjugated secondary antibody. Finally, immunoreactivity is detected with a chemiluminescent substrate (Clarity Western ECL substrate; Bio-Rad). […] Aurora A (#ab13824) and PLK1 (#ab189139) antibodies were from Abcam.

A549 cells = test: Transwell Matrigel invasion assay; format: cell-based
Experimental: Cell migration and invasion assays were performed in a transwell chamber (Corning, #3422) with a pore size of 8 μm. Cells were treated with different concentrations of ATA and Erlotinib for 48 h, then harvested and resuspended in a serum-free medium. Cells (1×10^4) were added to the upper side of the transwell chamber and fresh medium containing 10% FBS was added to the lower side. Cells were allowed to migrate from the upper side to the lower side of the chamber at 37° C. for 24 h. Membranes from the cell chamber were fixed with 4% paraformaldehyde for 20 min. The cells remaining on the upper side of the membrane were gently removed with a cotton swab and stained with 1% crystal violet for 20 min to stain the cells migrating to the other side of the transwell chamber. The membrane was then cut and fixed on a glass slide. The migrated cells on each slide were imaged with a Leica M165-FC microscope. For the transwell invasion assay, a Matrigel solution (Corning, #356230) was diluted to one-thirtieth with serum-free medium and applied to the upper side of the precoated chamber for 2 h, after the Matrigel had solidified, the cells were added to the upper side of the transwell chamber. The following procedure is identical to the migration assay. Migrated and invaded cells were quantified using ImageJ software.

MET = test: Western blot, MET protein levels in drug-resistant NSCLC cells; format: cell-based; conditions: 2 μM
Experimental: as §2

[4] = tested on: A549 cell-derived xenograft tumors; test: Mouse xenograft study; format: in vivo, nude mice; conditions: 25 mg/kg intraperitoneally every 3 days, day 31
Experimental: Cell line xenograft experiments were performed in 6-week-old female nude mice, 4×10^6 A549 cells were mixed 1:1 with matrigel-basement membrane matrix (Corning) and injected subcutaneously into nude mice. Tumors were allowed to grow to around […] and mice were randomly selected to receive treatment with ATA (25 mg/kg) or Erlotinib (25 mg/kg) intraperitoneally every 3 days for 31 days. ATA was formulated with 25% ethanol, 60% PEG300 (Sigma-Aldrich), and 15% Tween 80 (Sigma-Aldrich). Erlotinib was formulated in 5% DMSO, 30% PEG300, 5% Tween 80 and 60% H2O. Mouse body weight and tumor volume were measured every 3 days by a scale and caliper. Tumor volume (mm^3) was calculated using the formula. π/6×length (mm)×[width (mm)]^2. At least 6 mice in the control and treatment groups were evaluated during the study. All mice were sacrificed after 31 days of drug treatment, tumors were collected, and tumor weights were recorded. All animal studies were conducted in accordance with the requirements of the Animal Research Ethics Committee of Macao University and in compliance with all relevant ethical requirements.
To determine if ATA could also produce the same effect in vivo, this example injected A549 cells subcutaneously into nude mice to form tumor xenografts. Mice were randomly assigned to three groups. When the size of each tumor increased to a volume of approximately 100 mm^3, mice were injected intraperitoneally with vehicle control, ATA (25 mg/kg), or Erlotinib (25 mg/kg) every 3 days for 31 days. The tumor size and body weight of each mouse were measured every 3 days until the end of the animal experiment on day 31.

[5] = tested on: drug-resistant NSCLC cells (A549, H358, H1975, H1650); test: MTT assay, summary over all four cell lines; format: cell-based
Experimental: (§3) Cells were seeded at a density of 3×10^3 per well in 96-well plates, allowed to attach overnight, and treated with various concentrations of agent. After 72 h of treatment, 10 μL of MTT solution (5 mg/mL) was added to each well and cultured in the plate for 4 h. The crystallized formazan was dissolved in 100 μL of 10% (w/v) SDS and 0.01 mol/L HCl solution for 24 h, and then the value was read by spectrophotometry at 595 nm using a microplate reader.

H358 cells [6] = test: MTT cell viability assay, H358 cells; format: cell-based
Experimental: as §3

H1975 cells = test: Colony formation (cloning experiment), H1975 cells; format: cell-based; conditions: 0.125 μM, 10 days
Experimental: as §1

CC(=O)Oc1c(OC(C)=O)c2c(C)coc2c2ccc3c(c12)CCCC3(C)C [ATA, acetyltanshinone IIA]
inhibition of colony formation (H358 cells [1]; 0.125 μM): almost completely inhibited
colony formation inhibition compared with Afatinib (H358 cells [1]; 1 μM): significantly higher colony formation inhibition than Afatinib
inhibition of colony formation compared with Erlotinib and Osimertinib [2]: much more effectively than Erlotinib and Osimertinib
proportion of cells in the G1 phase (A549 and H1650 cells): increased
proportion of cells in the S phase (A549 and H1650 cells): decreased
increase of p21 protein levels in xenograft tumor tissue [3]: more than 2 fold
protein levels of EGFR, MET, p-p70S6K, p70S6K, p-S6RP, AURKA, PLK1 and survivin in xenograft tumor tissue [3]: greatly reduced
decrease of EGFR protein levels (EGFR; A549 cells, 2 μM, 72 or 96 h): ≤ 90%
reduction of EGFR protein levels (EGFR; H358, H1975 and H1650 cells, 1 or 2 μM, 48 h): 60-70%
effect on cell invasion (A549 cells; 0.5 μM): significant inhibitory effect
reduction of invasion ability (A549 cells; 1 μM): 88%
decrease of MET protein levels (MET; A549 cells, 72 or 96 h): ≤ 90%
reduction of MET protein levels (MET; all four cell lines, 48 h): 70-90%
reduction of tumor size compared to the control group [4]: 72.1%
reduction of tumor weight [4]: 77.4%
IC50 ([5]; A549, H358, H1975, H1650, MTT, 72 h, read-out: IC50 values, range over the four cell lines): 1300 to 1800 nM
IC50 of ATA lower than that of Erlotinib ([5]; four cell lines): 6-17 fold
IC50 ratio of Erlotinib/ATA (H358 cells [6]): 13.7
IC50 (H358 cells [6]; MTT, 72 h): 1570 ± 100 nM
inhibition of colony formation (H1975 cells): almost completely inhibited
